Measurements reported in patent US4261994A, “1,2,4-Oxadiazole derivatives, their preparation and pharmaceutical use” (Synthelabo, priority 1977, dated 1981).
Where two headings read alike, the source gives them in different places.

Columns and labels:
[1] = system: spontaneously hypertonic male rats; experiment: Anti-hypertensive activity in spontaneously hypertonic male rats (method of Gerold and Tschirky), systolic pressure by pulse at caudal artery; type: in vivo; settings: Rattus norvegicus, po; for change in vivo at 5 mg/kg: administered dose 5 mg/kg orally; for change in vivo at 20 mg/kg: administered dose 20 mg/kg orally
Protocol: The anti-hypertensive activity is evaluated on spontaneously hypertonic male rats in accordance with the method of Gerold and Tschirky (Arzneim. Forsch, 1968, 18, 1,285). The systolic pressure is measured by taking the pulse at the level of the caudal artery. […]

[2] = Toxicity, 50% lethal dose, intraperitoneal administration to CD1 male rats; settings: rat, in vivo, ip; intraperitoneally to rats, fasted 18 hours; read-out: 50% lethal dose (LD 50)
Protocol: The toxicity of the compounds (I) was determined by intraperitoneal administration to CD1 (Charles River) male rats weighing 100 to 120 g, which had fasted for 18 hours.

[3] = 4 hours, read-out: Anti-hypertensive activity %, 4 hours
[4] = 24 hours, read-out: Anti-hypertensive activity %, 24 hours

Structure (SMILES) | change in vivo at 5 mg/kg [1, 3] [%] | change in vivo at 5 mg/kg [1, 4] [%] | LD50 [2] [mg/kg] | change in vivo at 20 mg/kg [1, 3] [%] | change in vivo at 20 mg/kg [1, 4] [%]
Nc1noc(Cc2cc(Cl)ccc2Cl)n1 [Compound 19] | -18 | -3 | ≥ 500 | – | –
CNc1noc(Cc2c(Cl)cccc2Cl)n1 [Compound 2, 3-Methylamino-5-(2,6-dichlorobenzyl)-1,2,4-oxadiazole] | – | – | – | -18 | -9
Nc1noc(Cc2c(Cl)cccc2Cl)n1 [Compound 18, 3-Amino-5-(2,6-dichlorobenzyl)-1,2,4-oxadiazole] | -18 | -3 | 250 | – | –
CN(C)CCCNc1noc(Cc2c(Cl)cccc2Cl)n1 [Compound 6] | – | – | < 250 | -5 | -7
CN(C)c1noc(Cc2c(Cl)cccc2Cl)n1 [Compound 1] | – | – | – | -33 | -14
CN(C)C=Nc1noc(Cc2c(Cl)cccc2Cl)n1 [Compound 9] | – | – | > 500 | -29 | -15
CN(C)C=Nc1noc(Cc2c(F)cccc2Cl)n1 [Compound 15] | -26 | -6 | ≤ 500 | – | –
Nc1noc(Cc2c(F)cccc2F)n1 [Compound 16] | -18 | -1 | – | – | –
Cc1cccc(C)c1Cc1nc(N=CN(C)C)no1 [Compound 14] | – | – | – | -22 | -13
OCCN(C=Nc1noc(Cc2c(Cl)cccc2Cl)n1)CCO [Compound 11, 3-[N,N-Bis-(2-hydroxyethyl)-formamidino]-5-(2,6-dichlorobenzyl)-1,2,4-oxadiazole] | – | – | ≥ 500 | -32 | –
CN1CCN(C=Nc2noc(Cc3c(Cl)cccc3Cl)n2)CC1 [Compound 10] | – | – | < 500 | -29 | –
